Results on one molecule are retold here after patent US20110217309A1, “BIOLOGICAL MARKERS PREDICTIVE OF ANTI-CANCER RESPONSE TO INSULIN-LIKE GROWTH FACTOR-1 RECEPTOR KINASE INHIBITORS” (priority 2010, published 2011).

Each structure is given as a SMILES string.

The test system of one assay is MDAH-2774 cells. In words: Cell Titer Glo proliferation assay. It counts as cell-based, human. To be noted: MDAH-2774, 72 hours, KRAS mutant. As to the method: (§1) Cell Lines and Culture. Human cancer cell lines, were obtained from American Type Culture Collection (ATCC, Manassas, Va.), or the following additional indicated sources, and cultured in media as described. […] Cells were maintained at 37° C. in an incubator under an atmosphere containing 5% CO2. The cells were routinely screened for the presence of mycoplasma (MycoAlert, Cambrex Bio Science, Baltimore, Md.). For growth inhibition assays, cells were plated and allowed to proliferate for 24 hours. […] Cell viability was assayed using the Cell Titer-Glo reagent (Promega Corp., Madison, Wis.).
(§2) Proliferation Assay. […] The basis of the assay is a luminescent quantitation of ATP present in a cell culture plate well. In essence, the greater the number of viable cells in the well, the greater the level of ATP present. The assay utilizes a substrate that binds ATP to produce a luminescent signal, which can be read on a luminometer. Unless otherwise noted, the manufacturer's instructions were followed exactly. Briefly, on Day 1, cells were plated in 120 μl of 10% serum-containing growth media at a density of 4000 cells/well in a white polystyrene 96 well assay plate. […] After 72 h incubation with the inhibitor, the cells were assayed. Results were calculated as a fraction of the DMSO controlled cells.
(In general: Cellular ATP, detected with luciferase, serves as a proxy for viable cell number.)

The next assay concerns OVCAR5 cells. Nature of the assay: Cell Titer Glo proliferation assay. It counts as cell-based, human. To be noted: OVCAR5, 72 hours, KRAS mutant. The procedure:
as §1, §2

The test system of assay [1] is MDAH-2774 ovarian tumor cells. Nature of the assay: Caspase 3/7 Glo apoptosis assay. Type of assay: cell-based, human. To be noted: with 10 nM pactitaxel. As to the method:
Measurement of apoptosis: Induction of apoptosis as measured by increased Caspase 3/7 activity was determined using the Caspase 3/7 Glo assay (Promega Corporation, Madison, Wis.). Cell lines were seeded at a density of 3000 cells per well in a 96-well plate. 24 hours after plating, cells were dosed with compounds. The signal for Caspase 3/7 Glo was determined 24 hours after dosing. The caspase 3/7 activity was normalized to cell number per well, using a parallel plate treated with Cell Titer Glo (Promega Corporation, Madison, Wis.). Signal for each well was normalized using the following formula: Caspase 3/7 Glo luminescence units/Cell Titer Glo fraction of DMSO control. All graphs were generated using PRISM® software (Graphpad Software, San Diego, Calif.).

The test system of a further assay is Colo205 tumors. In words: Tumor xenograft study. To be noted: treatment in vivo for 10-14 days.
The subject of assay [2] is broad panel (n=116) of additional RTKs and other protein kinases. Conditions: at 1 μM; cited from earlier work.
The subject of the next assay is Akt. Nature of the assay: Phosphorylation of Akt (pAKT levels). Type of assay: cell-based. To be noted: OSI-906, in the presence or absence of pactitaxel (100, 30, 10, 3, 1 nM). As to the method:
The dotted line in the plot represents the calculated theoretical expectation if the combination was additive in nature, and was determined using the Bliss model for additivity. […] C.
The dotted line in the plot represents the calculated theoretical result if the combination was additive in nature, and was determined using the Bliss model for additivity.

For the next assay, the system named is H295R tumors. In words: Tumor xenograft study. To be noted: treatment in vivo for 10-14 days.
In the next assay the test system is SKNAS tumors. In words: Tumor xenograft study. To be noted: treatment in vivo for 10-14 days.

In the case of `C[C@]1(O)C[C@@H](c2nc(-c3ccc4ccc(-c5ccccc5)nc4c3)c3c(N)nccn32)C1` [OSI-906, cis-3-[8-amino-1-(2-phenyl-quinolin-7-yl)-imidazo[1,5-a]pyrazin-3-yl]-1-methyl-cyclobutanol], the “EC50, proliferation” value in the assay on MDAH-2774 cells and with OVCAR5 cells was “sub-micromolar” throughout. In addition, in assay [1], the induction of apoptosis result was “enhances the induction of apoptosis”. Also, the “% TGI (tumor growth inhibition)” value in the assay on Colo205 tumors is 90%; with H295R tumors, 85%; in the assay on SKNAS tumors, 71%. In assay [2], the “inhibition of additional kinases” value is reported as less than 50%. Further, the “phosphorylation of Akt (pAKT levels)” value in the assay on Akt was “decrease”.
